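Compound exposure: 48 hours, 5 concentrations, 96-well plates. GI50 = concentration required for 50% inhibition of growth.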 The source made the active and inactive calls. Cut-off read from the data, not from the text of the source: active = GI50 up to about 1.1 µM and inactive = higher.
What was measured:
Experiment in all cases: inhibition of tumour cell growth, NCI panel, 48 h
Hs-578T = system: Hs-578T
DU-145 = system: DU-145
NCI-H522 = system: NCI-H522
EKVX = system: EKVX
LOX IMVI = system: LOX IMVI
K562 = system: K562
OVCAR-5 = system: OVCAR-5
COLO 205 = system: COLO 205
UACC-62 = system: UACC-62
RXF 393 = system: RXF 393
HOP-62 = system: HOP-62
UO-31 = system: UO-31
BT-549 = system: BT-549
SK-MEL-2 = system: SK-MEL-2
SF-295 = system: SF-295
SK-MEL-5 = system: SK-MEL-5
SW-620 = system: SW-620
Malme-3M = system: Malme-3M
MCF7 = system: MCF7
HT-29 = system: HT-29
TK-10 = system: TK-10
U-251 = system: U-251
SF-268 = system: SF-268
OVCAR-3 = system: OVCAR-3
NCI-H23 = system: NCI-H23
ACHN = system: ACHN
OVCAR-4 = system: OVCAR-4
IGROV-1 = system: IGROV-1
HCT-116 = system: HCT-116
NCI/ADR-RES = system: NCI/ADR-RES
CAKI-1 = system: CAKI-1
SK-MEL-28 = system: SK-MEL-28
OVCAR-8 = system: OVCAR-8
SK-OV-3 = system: SK-OV-3
SN12C = system: SN12C
786-0 = system: 786-0
PC-3 = system: PC-3
MOLT-4 = system: MOLT-4
A549 = system: A549
HCT-15 = system: HCT-15
MDA-MB-231 = system: MDA-MB-231
MDA-MB-435 = system: MDA-MB-435
NCI-H460 = system: NCI-H460
RPMI-8226 = system: RPMI-8226
T47D = system: T47D
MDA-N = system: MDA-N
SNB-19 = system: SNB-19
M14 = system: M14
NCI-H226 = system: NCI-H226
HCC 2998 = system: HCC 2998
KM12 = system: KM12
SR = system: SR
SNB-75 = system: SNB-75
HOP-92 = system: HOP-92
UACC-257 = system: UACC-257
CCRF-CEM = system: CCRF-CEM
HL-60 = system: HL-60
SF-539 = system: SF-539
A498 = system: A498

Measured: GI50

CC1CCc2sc3nc(S)n(-c4ccccc4)c(=O)c3c2C1 (stereo unspecified)
inactive: Hs-578T 61.1 µM | DU-145 63.4 µM | NCI-H522 > 100 µM | EKVX > 100 µM | LOX IMVI 47.2 µM | K562 > 100 µM | OVCAR-5 86.9 µM | COLO 205 > 100 µM | UACC-62 31.3 µM | RXF 393 35.8 µM | HOP-62 36.3 µM | UO-31 15.1 µM | BT-549 > 100 µM | SK-MEL-2 27.7 µM | SF-295 27.7 µM | SK-MEL-5 44.1 µM | SW-620 > 100 µM | Malme-3M 66.8 µM | MCF7 39 µM | HT-29 39.6 µM | TK-10 57.8 µM | U-251 49.2 µM | SF-268 85.7 µM | OVCAR-3 39.6 µM | NCI-H23 92.7 µM | ACHN 62.5 µM | OVCAR-4 39.7 µM | IGROV-1 47.4 µM | HCT-116 > 100 µM | NCI/ADR-RES > 100 µM | CAKI-1 > 100 µM | SK-MEL-28 93.1 µM | OVCAR-8 > 100 µM | SK-OV-3 55.1 µM | SN12C > 100 µM | 786-0 62.7 µM | PC-3 33.3 µM | MOLT-4 41.1 µM | A549 81.8 µM | MDA-MB-231 53.8 µM | MDA-MB-435 > 100 µM | NCI-H460 34.4 µM | RPMI-8226 53 µM | T47D 33.4 µM | MDA-N > 100 µM | SNB-19 45.5 µM | M14 > 100 µM | NCI-H226 48.9 µM | HCC 2998 21.6 µM | KM12 75.2 µM | SR 33.4 µM | SNB-75 29.3 µM | HOP-92 37.7 µM | UACC-257 63.8 µM
> 100 µM: HCT-15

CCOC(=O)c1c(-c2ccccc2)[nH]c2ccc(Cl)cc2c1=O
33.3 µM: HCT-15
inactive: Hs-578T 35.4 µM | DU-145 56 µM | NCI-H522 28 µM | EKVX 54.6 µM | LOX IMVI 37.4 µM | K562 28.8 µM | OVCAR-5 > 100 µM | COLO 205 47.5 µM | UACC-62 37.7 µM | CCRF-CEM 26.4 µM | RXF 393 35 µM | HOP-62 65.9 µM | UO-31 29.4 µM | BT-549 30.8 µM | SK-MEL-2 34 µM | SF-295 47.8 µM | SK-MEL-5 29.8 µM | SW-620 > 100 µM | Malme-3M 61.8 µM | MCF7 31.8 µM | HT-29 27.9 µM | TK-10 42.8 µM | U-251 41.6 µM | SF-268 50.1 µM | OVCAR-3 19.5 µM | NCI-H23 41.1 µM | ACHN 27.6 µM | OVCAR-4 20.5 µM | IGROV-1 29.6 µM | HCT-116 27.2 µM | NCI/ADR-RES 32.2 µM | CAKI-1 37.9 µM | SK-MEL-28 69.7 µM | OVCAR-8 31.8 µM | SK-OV-3 45.1 µM | SN12C 51.4 µM | 786-0 38.7 µM | HL-60 28.2 µM | PC-3 41.1 µM | MOLT-4 28.3 µM | A549 36.6 µM | MDA-MB-231 31.3 µM | MDA-MB-435 34.8 µM | NCI-H460 30.3 µM | SF-539 29.9 µM | RPMI-8226 36.9 µM | T47D 23.7 µM | MDA-N 37.7 µM | SNB-19 > 100 µM | M14 49.9 µM | NCI-H226 68.9 µM | HCC 2998 37.9 µM | KM12 34.8 µM | SR 33.3 µM | SNB-75 45.8 µM | HOP-92 22 µM | UACC-257 36 µM

C1CCNCC1.CN(C)c1ccc(/C=C2/NC(=S)NC2=O)cc1
inactive: Hs-578T > 100 µM | DU-145 62.1 µM | NCI-H522 65.2 µM | EKVX 50.4 µM | LOX IMVI 49 µM | OVCAR-5 > 100 µM | COLO 205 49.9 µM | UACC-62 36.8 µM | CCRF-CEM 24.9 µM | RXF 393 37.6 µM | HOP-62 > 100 µM | UO-31 44.5 µM | BT-549 49.4 µM | SK-MEL-2 > 100 µM | SF-295 40.5 µM | SK-MEL-5 30.8 µM | SW-620 37.8 µM | Malme-3M > 100 µM | MCF7 62.4 µM | HT-29 34.6 µM | TK-10 59 µM | U-251 73.3 µM | SF-268 82 µM | OVCAR-3 43.9 µM | NCI-H23 61.5 µM | ACHN 64.7 µM | OVCAR-4 > 100 µM | IGROV-1 59.6 µM | HCT-116 23.3 µM | NCI/ADR-RES 77.4 µM | CAKI-1 62.5 µM | SK-MEL-28 87.3 µM | OVCAR-8 97.9 µM | SK-OV-3 69.3 µM | SN12C > 100 µM | 786-0 > 100 µM | HL-60 19.7 µM | PC-3 56.4 µM | MOLT-4 28.2 µM | A549 46.8 µM | MDA-MB-231 > 100 µM | MDA-MB-435 27.2 µM | SF-539 35.2 µM | RPMI-8226 24.5 µM | T47D 30.1 µM | MDA-N 36.3 µM | SNB-19 86.7 µM | M14 68.1 µM | NCI-H226 41.1 µM | HCC 2998 7.26 µM | SR 29.6 µM | SNB-75 49.7 µM | HOP-92 61.8 µM | UACC-257 72.8 µM
45.3 µM: HCT-15

S=C(Nc1ccc(Cl)cc1)SC1CCCCC1
23.2 µM: HCT-15
inactive: Hs-578T 31.8 µM | DU-145 40.9 µM | NCI-H522 19.7 µM | EKVX 20.8 µM | LOX IMVI 16.4 µM | K562 36.1 µM | OVCAR-5 17.5 µM | COLO 205 30.5 µM | UACC-62 14 µM | CCRF-CEM 33.7 µM | RXF 393 25.1 µM | HOP-62 27.7 µM | UO-31 27 µM | BT-549 29 µM | SK-MEL-2 17.6 µM | SF-295 19.1 µM | SK-MEL-5 16.7 µM | SW-620 32.9 µM | Malme-3M 28.4 µM | MCF7 19 µM | HT-29 20.8 µM | TK-10 40.6 µM | U-251 32.4 µM | SF-268 27 µM | OVCAR-3 21.4 µM | NCI-H23 20.5 µM | ACHN 17.5 µM | OVCAR-4 33.9 µM | IGROV-1 21.2 µM | HCT-116 25.6 µM | NCI/ADR-RES 37.1 µM | CAKI-1 15 µM | SK-MEL-28 17.3 µM | OVCAR-8 31.5 µM | SK-OV-3 27.8 µM | SN12C 19.2 µM | 786-0 36.6 µM | PC-3 35.7 µM | MOLT-4 29.2 µM | A549 19.2 µM | MDA-MB-231 29.4 µM | MDA-MB-435 29.9 µM | NCI-H460 28.4 µM | SF-539 23.1 µM | RPMI-8226 40.1 µM | T47D 22.5 µM | MDA-N 22.8 µM | SNB-19 20.8 µM | M14 19.7 µM | NCI-H226 72.4 µM | HCC 2998 19.2 µM | KM12 28 µM | SR 32.6 µM | SNB-75 25.2 µM | HOP-92 23.5 µM | UACC-257 25.9 µM

O=C(O)C1(Cc2ccccc2)Cc2ccccc2C1
> 100 µM: HCT-15
inactive: Hs-578T 94.4 µM | DU-145 > 100 µM | NCI-H522 > 100 µM | EKVX > 100 µM | LOX IMVI > 100 µM | K562 > 100 µM | OVCAR-5 > 100 µM | COLO 205 > 100 µM | UACC-62 > 100 µM | CCRF-CEM > 100 µM | RXF 393 69.7 µM | HOP-62 > 100 µM | UO-31 > 100 µM | BT-549 > 100 µM | SK-MEL-2 > 100 µM | SF-295 > 100 µM | SK-MEL-5 > 100 µM | SW-620 > 100 µM | Malme-3M > 100 µM | MCF7 > 100 µM | HT-29 > 100 µM | TK-10 > 100 µM | U-251 > 100 µM | A498 > 100 µM | SF-268 > 100 µM | OVCAR-3 > 100 µM | NCI-H23 > 100 µM | ACHN > 100 µM | OVCAR-4 > 100 µM | IGROV-1 > 100 µM | HCT-116 > 100 µM | NCI/ADR-RES > 100 µM | SK-MEL-28 > 100 µM | OVCAR-8 > 100 µM | SK-OV-3 > 100 µM | SN12C > 100 µM | HL-60 > 100 µM | PC-3 > 100 µM | MOLT-4 > 100 µM | A549 > 100 µM | MDA-MB-231 > 100 µM | MDA-MB-435 > 100 µM | NCI-H460 > 100 µM | SF-539 > 100 µM | RPMI-8226 > 100 µM | T47D > 100 µM | MDA-N > 100 µM | SNB-19 > 100 µM | M14 > 100 µM | NCI-H226 > 100 µM | HCC 2998 > 100 µM | KM12 > 100 µM | SR > 100 µM | SNB-75 10.6 µM | UACC-257 > 100 µM
